Laboratory results from article PMC7311950, “Potent Tetrahydroquinolone Eliminates Apicomplexan Parasites” (Frontiers in Cellular and Infection Microbiology, 2020).
≈ marks a conversion by molar mass, not a printed value. Like-named read-outs stand apart in the source and are kept apart here.

Key:
[1] = Metabolic stability in human liver microsomes; conditions: for Human liver microsomes: stability, Figure 2E
Protocol: (§1) The effects of changing R1 as 7-Et, 7-Me, 6-CF3, or 6-Me on activity against RH strain tachyzoites, kinetic solubility, and metabolic stability were compared. Kinetic solubility and metabolic stability in human or murine liver microsomes were measured. The hERG (human Ether-à-go-go-Related) liability was also determined. The hERG gene (KCNH2) encodes a protein Kv11.1, the alpha subunit of a potassium ion channel. This channel conducts the rapid component of the delayed rectifier potassium current, IKr, which is critical for repolarization of cardiac action potentials. A reduction in hERG currents from adverse drug effects can lead to long QT interval syndromes. These syndromes are characterized by action potential prolongation, lengthening of the QT interval on surface EKG, and an increased risk for “torsade de pointes” arrhythmias and sudden death. The MDCK-MDR1 Permeability Assay was also performed. MDCK-MDR1 refers to the ability of a compound to permeate across membranes of MDCK-MDR1 (Madin Darby canine kidney [MDCK] cells with the MDR1 gene [ABCB1], the gene encoding for the efflux protein, P-glycoprotein (P-gp)) in vitro. Assessing transport in both directions (apical to basolateral and basolateral to apical) across the cell monolayers enables an efflux ratio to be determined. […] This provides a prediction of blood brain barrier (BBB) penetration potential/permeability and efflux ratio. Effect in CACO-2 (Colon Adenocarcinoma cells) as a permeability assay and on cytochrome P450 (CYP 450) were also determined. CYP enzymes catalyze oxidative biotransformation (phase 1 metabolism) of most drugs. CYP enzymes, bind to membranes in a cell (cyto) and contain a heme pigment (chrome and P) that absorbs light at a wavelength of 450 nm when exposed to carbon monoxide. Metabolism of a drug by CYP enzymes is a major source of variability in drug effect. These were measured by Chem Partners. The relative effect on HFF and parasite enzymes also were compared.
(§2) In vitro absorption, distribution, metabolism, excretion, and toxicity (ADMET) analyses of the THQ compounds were outsourced to ChemPartner Shanghai Ltd. ELQ-271 (synthesized in-house) was tested as a comparison.

[2] = system: T. gondii EGS strain bradyzoites; test: In vitro challenge assay for EGS strain bradyzoites; format: cell-based, Toxoplasma gondii; conditions: for number of true cysts and small organisms: EGS strain, at 1 and 10 μM, immunofluorescence microscopy; for IC50: EGS strain in HFF, Figure 1A, read-out: Brady IC50
Protocol: HFF cells were grown in IMDM on removable, sterile glass cover slips in the bottom of a clear, flat-bottomed 24-well plate. Cultures were infected with 3 × 10^4 EGS strain parasites per well, in 0.5 mL media. The plate was returned to incubator at 37°C overnight. The following day, the media was removed. Colorless IMDM and compounds were added to make various concentrations of the drug. Total volume was 0.5 mL. Two wells had media only, as a control. Plates were returned to the 37°C incubator for 72 h, checked once each 24 h. If tachyzoites were visible in the control before 72 h, cells were fixed and stained. Cells were fixed using 4% paraformaldehyde and stained with Fluorescein-labeled Dolichos Biflorus Agglutinin, DAPI, and antibody to BAG1. Disks were removed, mounted on glass slides, and visualized using microscopy (Nikon Tl7). Slides were scanned using a CRi Panoramic Scan Whole Slide Scanner and viewed using Panoramic Viewer Software. Effects of compounds were quantitated by counting cysts in controls and treated cultures. Dolichos staining delimited structures and single organisms that remained were counted in a representative field of view. This was then multiplied by a factor determined by the total area of the cover slip in order to estimate the number of cysts and organisms in each condition. When the following forms were observed: “true cysts” with a dolichos-staining wall, “pseudocysts” or tight clusters of parasites, and small organisms, if there were fewer than four parasites visible in a cluster, organisms were counted individually (as “small organisms”). The entire scanned coverslip with all fields was also reviewed by 3 observers to confirm consistency.

[3] = Metabolic stability in mouse liver microsomes; conditions: for half-life: mouse, liver microsomes
Protocol: as §1, §2

[4] = Kinetic solubility in PBS pH 7.4 (Chem Partners)
Protocol: as §1

[5] = system: P. falciparum strains D6, TM91-C235, W2, C2B; test: Malaria SYBR Green I-Based Fluorescence (MSF) assay; format: cell-based; conditions: Plasmodium falciparum
Protocol: Malaria potency testing in vitro was performed using 4 different P. falciparum strains, D6, TM91-C235, W2, and C2B. The D6 strain is a drug sensitive strain from Sierra Leone, the TM91-C235 strain is a multi-drug resistant strain from Thailand, the W2 strain is a chloroquine resistant strain from Thailand, and the C2B strain is a multi-drug resistant strain with resistance against atovaquone. These assays were performed as described below.
Compound activity against P. falciparum, was tested using the Malaria SYBR Green I–Based Fluorescence (MSF) Assay. The complete method for performing this microtiter assay is described in previous work published by Plouffe et al. ([2008]) and Johnson et al. ([2007]). In brief, this assay uses the binding of the fluorescent dye SYBR Green I to malaria DNA to measure parasite growth in the presence of 2-fold diluted experimental or control. The relative fluorescence of the intercalated SYBR Green I proportional to parasite growth, and inhibitory compounds will result in lower observed fluorescence compared to untreated parasites.

[6] = T1/2 (M), predicted half-life in mouse liver microsomes, Figure 1A, min in Figure 2E for the same values
[7] = PBS, pH 7.4, aqueous solubility (PBS, pH 7.4), amorphous compounds
[8] = C2B, multi-drug resistant strain with resistance against atovaquone, read-out: SYBR Green C2B IC50
[9] = D6, drug sensitive strain, read-out: SYBR Green D6 IC50
[10] = TM91-C235, multi-drug resistant strain, read-out: SYBR Green C235 IC50
[11] = W2, chloroquine resistant strain, read-out: SYBR Green W2 IC50

Question: For `Cc1[nH]c2c(c(=O)c1-c1ccc(Oc3ccc(OC(F)(F)F)cc3)cc1)CCCC2` [JAG21, 2-Methyl-3-(4-(4-(Trifluoromethoxy)Phenoxy)Phenyl)-5,6,7,8-Tetrahydroquinolin-4-One], which “remaining in human liver microsomes” value ([1]; after 45 min) is on record?
Answer: > 99%

Question: And the Human liver microsomes [1]?
Answer: ∞

Question: What about the “EGS bradyzoites in treated cultures” value ([2]; 500 nM) of the same compound?
Answer: we do not see EGS bradyzoites

Question: And the “number of true cysts and small organisms” value [2]?
Answer: statistically significant reduction

Question: What about the IC50 ([2]; Toxoplasma gondii) of the same compound?
Answer: 2000 nM

Question: And the IC90 ([2]; Toxoplasma gondii, supplement summary)?
Answer: < 1000 nM

Question: What about the half-life [3, 6] of the same compound?
Answer: 1.68 h

Question: And the half-life ([3]; half-life in mouse liver microsomes)?
Answer: 1.68 h

Question: And the Mouse liver microsomes ([3]; stability, Figure 2E)?
Answer: 101.09 min

Question: What about the solubility [4, 7] of the same compound?
Answer: 7 µM (≈ 2.91 µg/mL)

Question: What about the solubility ([4]; PBS, pH 7.4, solubility of the microcrystalline form, microcrystalline form) of the same compound?
Answer: 3.5 µM (≈ 1.45 µg/mL)

Question: What about the solubility ([4]; pH 7.4) of the same compound?
Answer: 7.07 µM (≈ 2.94 µg/mL)

Question: And the IC50 [5, 8]?
Answer: 40.4 nM

Question: What about the IC50 ([5]; D6, TM91-C235, W2 and C2B, range over strains, read-out: IC50 values against drug sensitive and resistant strains) of the same compound?
Answer: 14 to 61 nM

Question: And the IC50 [5, 9]?
Answer: 14.3 nM

Question: What about the IC50 [5, 10] of the same compound?
Answer: 61.6 nM

Question: What about the IC50 [5, 11] of the same compound?
Answer: 55.2 nM

Question: And the IC90 ([5]; supplement summary, read-out: IC90, drug resistant Plasmodium falciparum in vitro)?
Answer: < 50 nM

Question: What does the source list for `Cc1[nH]c2c(c(=O)c1-c1ccc(Oc3ccc(Cl)cc3)cc1)CCCC2` [JAG50]?
Answer: half-life ([1]; human, liver microsomes): 1.65 h; Human liver microsomes [1]: 99.04 min; number of true cysts and small organisms [2]: statistically significant reduction; IC50 ([2]; Toxoplasma gondii): 2000 nM; Mouse liver microsomes [3]: 68.55 min; half-life [3, 6]: 1.14 h; solubility [4, 7]: 16 µM (≈ 5.85 µg/mL); solubility ([4]; pH 7.4): 16.4 µM (≈ 6 µg/mL); IC50 [5, 8]: 36.4 nM; IC50 [5, 9]: 46.6 nM; IC50 [5, 10]: 69.1 nM; IC50 [5, 11]: 31.4 nM
